Assay results as given in PMC5045383 (Oncotarget, 2016).

Assays:
[1] = tested on: FLT3-ITD/FLT3 wt-expressing MOLM13 and MOLM14 cells
Experimental: (§1) Cells were grown in 96-well culture plates (3000/well). […] Cell proliferation was determined after 72 hours drug treatment. […] Cell viability was measured with the CellTiter–Glo assay (Promega, USA), according to the manufacturer's instructions, and luminescence was measured in a multi-label reader (Envision, PerkinElmer, USA). […] GI50 values were calculated using Prism 5.0 (GraphPad Software, San Diego, CA).

[2] = tested on: HL-60 (FLT3-wt); assay: Cell proliferation assay (CellTiter-Glo); format: cell-based, human; details: 72 hours
Experimental: as §1

[3] = tested on: SKM-1 (FLT3-wt); assay: Cell proliferation assay (CellTiter-Glo); format: cell-based, human; details: 72 hours
Experimental: as §1

[4] = tested on: MOLM14, MV4-11 cells; assay: Apoptosis effect examination (PARP, Caspase-3 immunoblot); format: cell-based, human; details: at 1 μM, 24 hours
Text: Cells were then washed in PBS and lysed in cell lysis buffer. PARP, Caspase-3, GAPDH antibodies (Cell signaling Technology) were used for immunoblotting.

[5] = tested on: PF-382 (FLT3-wt); assay: cells; format: cell-based; details: 72 hours
Experimental: as §1

[6] = tested on: NB4 (FLT3-wt); assay: Cell proliferation assay (CellTiter-Glo); format: cell-based, human; details: 72 hours
Experimental: (§2) The human AML cell lines MV4-11, U937, OCI-AML-3 were purchased from the American Type Culture Collection (ATCC) (Manassas, VA, USA). The FLT3-ITD-expressing lines, MOLM-13, MOLM-14, were provided by Dr. Scott Armstrong, Dana Farber Cancer Institute (DFCI), Boston, MA. The wt FLT3-expressing AML line, NB4 (KRAS A18D), was obtained from Dr. Gary Gilliland. […] MV4-11 was cultured in IDMEM media (Corning, USA) with 10% FBS and supplemented with 2% L-glutamine and 1% penicillin/streptomycin. OCI-AML-3 was cultured in α-MEM media (Corning, USA) with 10% FBS and supplemented with 2% L-glutamine and 1% penicillin/streptomycin. All cell lines were maintained in culture media at 37°C with 5% CO2.
as §1

[7] = tested on: U937 (FLT3-wt); assay: Cell proliferation assay (CellTiter-Glo); format: cell-based, human
Experimental: as §2, §1

[8] = tested on: MOLM-13 (FLT3-ITD/wt); assay: Cell proliferation assay (CellTiter-Glo); format: cell-based, human
Experimental: as §2, §1

[9] = tested on: MV4-11 (FLT3-ITD); assay: Cell proliferation assay (CellTiter-Glo); format: cell-based, human
Experimental: as §2, §1

[10] = tested on: OCI-AML-3 (FLT3-wt); assay: Cell proliferation assay (CellTiter-Glo); format: cell-based, human; details: 72 hours
Experimental: as §2, §1

[11] = tested on: MOLM-14 (FLT3-ITD/wt); assay: Cell proliferation assay (CellTiter-Glo); format: cell-based, human
Experimental: as §2, §1

[12] = tested on: MV4-11; assay: Cell cycle analysis (PI, flow cytometry); format: cell-based, human; details: MV4-11, 1 μM, 24 hours
Experimental: (§3) The cells were fixed in 70% cold ethanol and incubated at −20°C overnight, then stained with PI/RNase staining buffer (BD Pharmingen). Flow cytometry was performed using a FACS Calibur (BD), and results were analyzed by ModFit software.

[13] = tested on: MOLM14; assay: Cell cycle analysis (PI, flow cytometry); format: cell-based, human; details: MOLM14, 1 μM, 24 hours
Experimental: as §3

[14] = tested on: MV4-11; assay: Combination study TCS359 + MK2206; format: cell-based, human; details: TCS359 0.12 μM, MK2206 0.12 μM, alone or combined, 72 hours
Experimental: (§4) The FLT3-ITD-expressing lines MOLM-13, MOLM14 and MV4-11 were grown in 96-well culture plates (3000/well), respectively. Combination treatment with the FLT3 kinase inhibitor, TCS359, and with the Akt inhibitor, MK2206, was performed. Cell proliferation was determined after treatment with compounds for 72 hours. Cell viability was measured using the CellTiter–Glo assay (Promega, USA), data were normalized to control groups (DMSO) and represented by the mean of three independent measurements with standard error < 20%. CI index was calculated by Calcusyn software (Biosoft, version 2.1), using the Chou-Talalay method.

[15] = tested on: MOLM-13; assay: Combination study TCS359 + MK2206; format: cell-based, human; details: TCS359 0.12 μM, MK2206 0.36 μM, alone or combined, 72 hours
Experimental: as §4

[16] = tested on: MOLM-14; assay: Combination study TCS359 + MK2206; format: cell-based, human; details: TCS359 3.3 μM, MK2206 0.12 μM, alone or combined, 72 hours
Experimental: as §4

[17] = tested on: FLT3-ITD mediated signaling in MOLM14 and MV4-11 cell lines; assay: Signaling pathway effect examination (immunoblot); format: cell-based, human; details: 1 μM, 4 hours
Text: Cells were then washed in PBS and lysed in cell lysis buffer. FLT3, Phospho-FLT3 (Tyr589/591), AKT, Phospho-AKT Ser473, Phospho-AKT Thr308, GSK-3β, Phospho-GSK-3β (Ser9), Phospho-FoxO1 (Thr24), FoxO1, PRAS40, Phospho-PRAS40 (Thr246), STAT5, Phospho-STAT5 (Tyr694), NF-ΚB-P65, Phospho-NF-ΚB-P65 (Ser536), P70S6K, Phospho-P70S6K Thr389, 4EBP1, Phospho-4EBP1 (Thr37/46), ERK, Phospho-p44/42MAPK (Erk1/2) (Thr202/Tyr204), C-Myc and GAPDH antibodies (Cell Signaling Technology) were used for immunoblotting.

[18] = MOLM-13 (FLT3-ITD/wt), 72 hours, Table 1
[19] = MV4-11 (FLT3-ITD), 72 hours, Table 1
[20] = Homo sapiens, MOLM-13 (FLT3-ITD/wt), 72 hours, Table 1
[21] = Homo sapiens, MV4-11 (FLT3-ITD), 72 hours, Table 1
[22] = Homo sapiens, MOLM-14 (FLT3-ITD/wt), 72 hours, Table 1
[23] = Homo sapiens, read-out: Relative activity(%)

| GI50 ([2]; Homo sapiens) [nM] | GI50 ([3]; Homo sapiens) [µM] | GI50 ([7]; Homo sapiens, U-937, 72 hours) [µM] | GI50 [8, 20] [nM] | GI50 [9, 21] [nM] | GI50 ([10]; Homo sapiens) [nM] | GI50 [11, 22] [nM] | Structure (SMILES) | GI50 [2] [nM] | GI50 [3] [µM] | apoptosis induction [4] | GI50 [5] [nM] | GI50 [6] [nM] | %G0–G1 [12] [%] | %G2–M [12] [%] | %S [12] [%] | %G0–G1 [13] [%] | %G2–M [13] [%] | %S [13] [%] | GI50 ([5]; Homo sapiens) [nM] | GI50 ([6]; Homo sapiens) [nM] | other results |
| --- | --- | --- | --- | --- | --- | --- | --- | --- | --- | --- | --- | --- | --- | --- | --- | --- | --- | --- | --- | --- | --- |
|  |  |  |  |  |  |  | COc1ccc(C(=O)Nc2sc3c(c2C(N)=O)CCCC3)cc1OC [TCS359] | 540 | > 10 | did not induce apoptosis | > 10000 | > 10000 | 73.62 | 2.57 | 23.81 | 55.04 | 9.08 | 35.88 |  |  | fold loss of activity with FLT3 ligand stimulation [1]: 6-15 fold; GI50 ([7]; 72 hours): > 10 µM; GI50 [8, 18]: 560 nM; GI50 ([8]; MOLM-13+FL(1 ng/mL)): > 10000 nM; GI50 ([8]; MOLM-13+FL(5 ng/mL)): > 10000 nM; GI50 ([8]; MOLM-13+FL(10 ng/mL)): > 10000 nM; GI50 ([8]; MOLM-13, no FLT3 ligand, Table 3): 420 nM; GI50 [9, 19]: 680 nM; GI50 ([9]; MV4-11+FL(10 ng/mL)): 1400 nM; GI50 ([9]; MV4-11, no FLT3 ligand, Table 3): 490 nM; GI50 [10]: > 10000 nM; GI50 ([11]; MOLM-14+FL(1 ng/mL)): > 10000 nM; GI50 ([11]; MOLM-14+FL(5 ng/mL)): > 10000 nM; GI50 ([11]; MOLM-14+FL(10 ng/mL)): > 10000 nM; Relative activity(%) [14]: 98.9%; Relative activity(%) [15]: 69.7%; Relative activity(%) [16]: 68.4% |
|  |  |  |  |  |  |  | NC1(Cc2ccc(Cl)cc2)CCN(c2ncnc3[nH]ccc23)CC1 [CCT128930] | 1500 | 4.3 |  | 1300 | 2500 |  |  |  |  |  |  |  |  | GI50 ([7]; 72 hours): 4.1 µM; GI50 [8, 18]: 650 nM; GI50 [9, 19]: 1000 nM; GI50 [10]: 2200 nM; GI50 ([11]; MOLM-14 (FLT3-ITD/wt), 72 hours, Table 1): 1100 nM |
| 160 | > 10 | 5.1 | 280 | 5200 | > 10000 | 540 | CCn1c(-c2nonc2N)nc2c(C#CC(C)(C)O)ncc(OC[C@H]3CCCNC3)c21 [GSK690693] |  |  |  |  |  | 60.48 | 7 | 32.52 | 54.52 | 9.78 | 35.7 | 240 | 220 |  |
| 310 | > 10 | 0.59 | 290 | 2100 | 1100 | 850 | CC(C)NC[C@@H](C(=O)N1CCN(c2ncnc3c2[C@H](C)C[C@H]3O)CC1)c1ccc(Cl)cc1 [GDC0068] |  |  |  |  |  |  |  |  |  |  |  | 440 | 5900 |  |
| 160 | 4.6 | 7.2 | 100 | 5200 | 1400 | 320 | NC1(c2ccc(-c3nc4ccn5c(=O)[nH]nc5c4cc3-c3ccccc3)cc2)CCC1 [MK2206] |  |  | did not induce apoptosis |  |  | 64.92 | 7.69 | 27.39 | 63.9 | 7.3 | 28.81 | 610 | 210 | effect on FLT3 signaling pathway (pFLT3, pSTAT5, c-MYC) [17]: did not affect this signaling pathway; activity at 0.12 µM [14, 23]: 88.6%; activity at 0.36 µM [15, 23]: 59.3%; activity at 0.12 µM [16, 23]: 65.5% |
| 370 | > 10 | 0.61 | 160 | 670 | 1200 | 500 | NC1(C(=O)N[C@@H](CCO)c2ccc(Cl)cc2)CCN(c2ncnc3[nH]ccc23)CC1 [AZD5363] |  |  |  |  |  |  |  |  |  |  |  | 480 | 930 |  |
